US7473790B2 (Pfizer Inc., priority 2003, dated 2009)

The compounds below were run against T1, HCV polymerase (Hepatitis C virus genotype 1b, UniProt P26663) (assay: HCV polymerase primer/template-directed transcription assay (32P-GTP incorporation, filter binding)). Settings: @ 50 uM compound; given where IC50 was impractical to calculate; read-out: percent inhibition.
T1 construct: 2.5 pmoles (0.15 μg) HCV polymerase protein in a final volume of 75 μL
Assay type: biochemical
Procedure, shortened: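 Recombinant genotype 1b polymerase (30 nM) extended biotin-dG12 primer on poly(rC)300 template with 1 μM GTP plus α-32P-GTP, pH 7.2, 10 mM MgCl2, 30 min at 30° C, 1% DMSO final. Products captured on DE filters and counted. IC50 fitted from triplicate cpm, with a tight-binding correction applied below 200 nM.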

T1 sequence (P26663 2420-3010): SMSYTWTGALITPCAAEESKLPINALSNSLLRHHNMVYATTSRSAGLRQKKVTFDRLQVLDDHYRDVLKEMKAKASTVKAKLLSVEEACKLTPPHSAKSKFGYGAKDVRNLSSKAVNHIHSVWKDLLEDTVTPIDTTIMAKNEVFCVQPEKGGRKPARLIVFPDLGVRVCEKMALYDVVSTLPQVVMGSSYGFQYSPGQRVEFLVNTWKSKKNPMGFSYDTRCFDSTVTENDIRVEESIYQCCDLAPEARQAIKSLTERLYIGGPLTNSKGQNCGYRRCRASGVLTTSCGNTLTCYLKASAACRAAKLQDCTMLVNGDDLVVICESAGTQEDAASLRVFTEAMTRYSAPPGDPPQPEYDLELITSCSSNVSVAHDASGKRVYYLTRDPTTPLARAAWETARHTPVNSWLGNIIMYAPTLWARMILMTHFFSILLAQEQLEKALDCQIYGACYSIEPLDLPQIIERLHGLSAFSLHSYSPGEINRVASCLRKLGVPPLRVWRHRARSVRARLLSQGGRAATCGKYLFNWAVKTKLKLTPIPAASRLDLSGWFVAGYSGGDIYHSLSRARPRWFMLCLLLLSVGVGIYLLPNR

Question: Which inhibition at 50 µM does the source give for `CCC1(CCc2ccc(OC)cc2)CC(=O)CC(=O)O1` (stereo not shown) [A(23), 6-Ethyl-6-[2-(4-methoxy-phenyl)-ethyl]-dihydro-pyran-2,4-dione] here?
Answer: Its inhibition at 50 µM is 1%.

Question: With `COc1ccc(CCC2(CC(C)C)CC(=O)CC(=O)O2)cc1` (stereo not shown) [A(24), 6-Isobutyl-6-[2-(4-methoxy-phenyl)-ethyl]-dihydro-pyran-2,4-dione] as the compound, how does the inhibition at 50 µM read?
Answer: The inhibition at 50 µM was 29%.

Question: How did the inhibition at 50 µM turn out when `C=CCC1(CCc2ccc(OC)cc2)CC(=O)CC(=O)O1` (stereo not shown) [A(26), 6-Allyl-6-[2-(4-methoxy-phenyl)-ethyl]-dihydro-pyran-2,4-dione] was run?
Answer: The inhibition at 50 µM was 20%.

Question: Which inhibition at 50 µM does the source give for `CCOC(=O)CC(=O)N[C@H](C)c1ccc(CCC2(C3CCCC3)CC(=O)CC(=O)O2)cc1` (stereo partly shown) [A(39), N-(1-{4-[2-(2-Cyclopentyl-4,6-dioxo-tetrahydro-pyran-2-yl)-ethyl]-phenyl}-ethyl)-malonamic acid ethyl ester] here?
Answer: Its inhibition at 50 µM is 14%.

Question: Which inhibition at 50 µM does the source give for `COc1ccc(CCC2(C3CCCC3)CC(=O)CC(=O)O2)c(C(C)=O)c1` (stereo not shown) [A(61), 6-[2-(2-acetyl-4-methoxyphenyl)ethyl]-6-cyclopentyldihydro-2H-pyran-2,4(3H)-dione] here?
Answer: The inhibition at 50 µM was 40%.

Same assay, conditions: recombinant HCV polymerase; 30 minutes at 30° C.; concentration giving 50% inhibition of polymerase-directed transcription; read-out: IC50

Question: Which IC50 does the source give for `CCCC1(CCc2ccc(OC)cc2)CC(=O)CC(=O)O1` (stereo not shown) [A(25), 6-[2-(4-Methoxy-phenyl)-ethyl]-6-propyl-dihydro-pyran-2,4-dione] here?
Answer: Its IC50 is 73.9 µM.

Question: How did the IC50 turn out when `CC1(c2ccc(CCC3(C4CCCC4)CC(=O)CC(=O)O3)cc2Cl)CC(=O)CC(=O)O1` (stereo not shown) [A(27), 6-[2-(3-Chloro-4-(6-Methyl-dihydro-pyran-2,4-dione)-phenyl)-ethyl]-6-cyclopentyl-dihydro-pyran-2,4-dione] was run?
Answer: The IC50 was 0.125 µM.

Question: Which IC50 does the source give for `CC1(c2cccc(CCC3(C4CCCC4)CC(=O)CC(=O)O3)c2)CC(=O)CC(=O)O1` (stereo not shown) [A(28), 6-Cyclopentyl-6-[2-(3-(6-Methyl-dihydro-pyran-2,4-dione)-phenyl)-ethyl]-dihydro-pyran-2,4-dione] here?
Answer: Its IC50 is 3.9 µM.

Question: Which IC50 does the source give for `CC1(c2ccc(CCC3(C4CCCC4)CC(=O)CC(=O)O3)cc2)CCC(=O)O1` (stereo not shown) [A(29), 6-Cyclopentyl-6-{2-[4-(2-methyl-5-oxo-tetrahydro-furan-2-yl)-phenyl]-ethyl}-dihydro-pyran-2,4-dione] here?
Answer: The IC50 was 1.5 µM.

Question: Which IC50 does the source give for `CCC1(c2ccc(CCC3(C4CCCC4)CC(=O)CC(=O)O3)cc2Cl)CC(=O)CC(=O)O1` (stereo not shown) [A(30), 6-[2-(3-Chloro-4-(6-Ethyl-dihydro-pyran-2,4-dione)-phenyl)-ethyl]-6-cyclopentyl-dihydro-pyran-2,4-dione] here?
Answer: The IC50 was 0.84 µM.

Question: How did the IC50 turn out when `O=C1CC(=O)OC(CCc2ccc(C3(C4CC4)CC(=O)CC(=O)O3)cc2)(C2CCCC2)C1` (stereo not shown) [A(31)] was run?
Answer: Its IC50 is 0.4 µM.

Question: With `O=C1CC(=O)OC(CCc2ccc(C(=O)C3CC3)cc2)(C2CCCC2)C1` (stereo not shown) [A(32), 6-Cyclopentyl-6-[2-(4-cyclopropanecarbonyl-phenyl)-ethyl]-dihydro-pyran-2,4-dione] as the compound, how does the IC50 read?
Answer: The IC50 was 5.2 µM.

Question: For `COC(=O)C(C)(C)c1ccc(CCC2(C3CCCC3)CC(=O)CC(=O)O2)cc1` (stereo not shown) [A(33), 2-{4-[2-(2-Cyclopentyl-4,6-dioxo-tetrahydro-pyran-2-yl)-ethyl]-phenyl}-2-methyl-propionic acid methyl ester], which IC50 is on record?
Answer: The IC50 was 5 µM.

Question: How did the IC50 turn out when `CC(C)(C)C1(c2ccc(CCC3(C4CCCC4)CC(=O)CC(=O)O3)cc2)OCCO1` (stereo not shown) [A(34), 6-{2-[4-(2-tert-Butyl-[1,3]dioxolan-2-yl)-phenyl]-ethyl}-6-cyclopentyl-dihydro-pyran-2,4-dione] was run?
Answer: Its IC50 is 10 µM.

Question: With `C[C@@H](O)c1ccc(CCC2(C3CCCC3)CC(=O)CC(=O)O2)cc1` (stereo partly shown) [A(35), 6-Cyclopentyl-6-{2-[4-(1-hydroxy-ethyl)-phenyl]-ethyl}-dihydro-pyran-2,4-dione] as the compound, how does the IC50 read?
Answer: The IC50 was 4.1 µM.

Question: `C[C@H](O)c1ccc(CCC2(C3CCCC3)CC(=O)CC(=O)O2)cc1` (stereo partly shown) [A(36), 6-Cyclopentyl-6-{2-[4-(1-hydroxy-ethyl)-phenyl]-ethyl}-dihydro-pyran-2,4-dione] was tested. Which IC50 did it give?
Answer: Its IC50 is 8.4 µM.

Question: With `CC(C)(C)C(=O)c1ccc(CCC2(C3CCCC3)CC(=O)CC(=O)O2)cc1` (stereo not shown) [A(37), 6-Cyclopentyl-6-{2-[4-(2,2-dimethyl-propionyl)-phenyl]-ethyl}-dihydro-pyran-2,4-dione] as the compound, how does the IC50 read?
Answer: Its IC50 is 8.7 µM.

Question: How did the IC50 turn out when `CC(=O)N[C@H](C)c1ccc(CCC2(C3CCCC3)CC(=O)CC(=O)O2)cc1` (stereo partly shown) [A(38), N-(1-{4-[2-(2-Cyclopentyl-4,6-dioxo-tetrahydro-pyran-2-yl)-ethyl]-phenyl}-ethyl)-acetamide] was run?
Answer: The IC50 was 12 µM.

Question: For `N#CC1(c2ccc(CCC3(C4CCCC4)CC(=O)CC(=O)O3)cc2)CC1` (stereo not shown) [A(40), 1-{4-[2-(2-Cyclopentyl-4,6-dioxo-tetrahydro-pyran-2-yl)-ethyl]-phenyl}-cyclopropanecarbonitrile], which IC50 is on record?
Answer: Its IC50 is 2 µM.

Question: Which IC50 does the source give for `CNC(=O)N[C@H](C)c1ccc(CCC2(C3CCCC3)CC(=O)CC(=O)O2)cc1` (stereo partly shown) [A(41), 1-(1-{4-[2-(2-Cyclopentyl-4,6-dioxo-tetrahydro-pyran-2-yl)-ethyl]-phenyl}-ethyl)-3-methyl-urea] here?
Answer: Its IC50 is 13 µM.

Question: For `C[C@@H](NS(C)(=O)=O)c1ccc(CCC2(C3CCCC3)CC(=O)CC(=O)O2)cc1` (stereo partly shown) [A(42), N-(1-{4-[2-(2-Cyclopentyl-4,6-dioxo-tetrahydro-pyran-2-yl)-ethyl]-phenyl}-ethyl)-methanesulfonamide], which IC50 is on record?
Answer: Its IC50 is 8 µM.

Question: Which IC50 does the source give for `Cc1cc(C(=O)N[C@H](C)c2ccc(CCC3(C4CCCC4)CC(=O)CC(=O)O3)cc2)no1` (stereo partly shown) [A(43), 5-Methyl-isoxazole-3-carboxylic acid (1-{4-[2-(2-cyclopentyl-4,6-dioxo-tetrahydro-pyran-2-yl)-ethyl]-phenyl}-ethyl)-amide] here?
Answer: Its IC50 is 20 µM.

Question: Which IC50 does the source give for `O=C1CC(=O)OC(CCC2CCCCC2)(C2CCCC2)C1` (stereo not shown) [A(44), 6-(2-Cyclohexyl-ethyl)-6-cyclopentyl-dihydro-pyran-2,4-dione] here?
Answer: The IC50 was 68.3 µM.

Question: How did the IC50 turn out when `N#Cc1cccc(-c2ccc(CCC3(C4CCCC4)CC(=O)CC(=O)O3)cc2)c1` (stereo not shown) [A(45), 4′-[2-(2-Cyclopentyl-4,6-dioxo-tetrahydro-pyran-2-yl)-ethyl]-biphenyl-3-carbonitrile] was run?
Answer: Its IC50 is 30 µM.

Question: Which IC50 does the source give for `N#Cc1ccccc1CCC1(C2CCCC2)CC(=O)CC(=O)O1` (stereo not shown) [A(46), 2-[2-(2-Cyclopentyl-4,6-dioxo-tetrahydro-pyran-2-yl)-ethyl]-benzonitrile] here?
Answer: The IC50 was 73 µM.

Question: How did the IC50 turn out when `O=C1CC(=O)OC(CCc2ccc3ccccc3c2)(C2CCCC2)C1` (stereo not shown) [A(47), 6-Cyclopentyl-6-(2-naphthalen-2-yl-ethyl)-dihydro-pyran-2,4-dione] was run?
Answer: The IC50 was 7 µM.

Question: `O=C1CC(=O)OC(CCc2ccc(OC3CCCCO3)cc2)(C2CCCC2)C1` (stereo not shown) [A(48), 6-Cyclopentyl-6-{2-[4-(tetrahydro-pyran-2-yloxy)-phenyl]-ethyl}-dihydro-pyran-2,4-dione] was tested. Which IC50 did it give?
Answer: Its IC50 is 33.2 µM.

Question: `CNC(=O)C(C)(C)c1ccc(CCC2(C3CCCC3)CC(=O)CC(=O)O2)cc1` (stereo not shown) [A(49), 2-{4-[2-(2-Cyclopentyl-4,6-dioxo-tetrahydro-pyran-2-yl)-ethyl]-phenyl}-N-methyl-isobutyramide] was tested. Which IC50 did it give?
Answer: The IC50 was 9 µM.

Question: `O=C1CC(=O)OC(CCc2ccc(-c3nnc(-c4ccccc4)o3)cc2)(C2CCCC2)C1` (stereo not shown) [A(50), 6-Cyclopentyl-6-{2-[4-(5-phenyl-[1,3,4]oxadiazol-2-yl)-phenyl]-ethyl}-dihydro-pyran-2,4-dione] was tested. Which IC50 did it give?
Answer: Its IC50 is 5.9 µM.

Question: With `CCNC(=O)C(C)(C)c1ccc(CCC2(C3CCCC3)CC(=O)CC(=O)O2)cc1` (stereo not shown) [A(51), 2-{4-[2-(2-Cyclopentyl-4,6-dioxo-tetrahydro-pyran-2-yl)-ethyl]-phenyl}-N-ethyl-isobutyramide] as the compound, how does the IC50 read?
Answer: Its IC50 is 3.9 µM.

Question: For `COC(=O)CC(=O)CC(=O)C(C)(C)Oc1ccc(CCC2(C3CCCC3)CC(=O)CC(=O)O2)cc1F` (stereo not shown) [A(52), 6-{4-[2-(2-Cyclopentyl-4,6-dioxo-tetrahydro-pyran-2-yl)-ethyl]-2-fluoro-phenoxy}-6-methyl-3,5-dioxo-heptanoic acid methyl ester], which IC50 is on record?
Answer: Its IC50 is 1.5 µM.

Question: With `COC(=O)C(C)(C)Oc1ccc(CCC2(C3CCCC3)CC(=O)CC(=O)O2)cc1Cl` (stereo not shown) [A(53), 2-{2-Chloro-4-[2-(2-cyclopentyl-4,6-dioxo-tetrahydro-pyran-2-yl)-ethyl]-phenoxy}-2-methyl-propionic acid methyl ester] as the compound, how does the IC50 read?
Answer: Its IC50 is 3.3 µM.

Question: How did the IC50 turn out when `O=C(O)COc1ccc(CCC2(C3CCCC3)CC(=O)CC(=O)O2)cc1Cl` (stereo not shown) [A(54)] was run?
Answer: The IC50 was 2.9 µM.

Question: For `COC(=O)C(C)(C)Oc1ccc(CCC2(C3CCCC3)CC(=O)CC(=O)O2)cc1F` (stereo not shown) [A(55), 2-{4-[2-(2-Cyclopentyl-4,6-dioxo-tetrahydro-pyran-2-yl)-ethyl]-2-fluoro-phenoxy}-2-methyl-propionic acid methyl ester], which IC50 is on record?
Answer: Its IC50 is 11.2 µM.

Question: `Cc1nc(C(C)(C)c2ccc(CCC3(C4CCCC4)CC(=O)CC(=O)O3)cc2)no1` (stereo not shown) [A(56), 6-Cyclopentyl-6-(2-{4-[1-methyl-1-(5-methyl-[1,2,4]oxadiazol-3-yl)-ethyl]-phenyl}-ethyl)-dihydro-pyran-2,4-dione] was tested. Which IC50 did it give?
Answer: Its IC50 is 39 µM.

Question: With `O=C1CC(=O)OC(CCCCC2CCCCC2)(C2CCCC2)C1` (stereo not shown) [A(57), 6-(4-Cyclohexyl-butyl)-6-cyclopentyl-dihydro-pyran-2,4-dione] as the compound, how does the IC50 read?
Answer: Its IC50 is 6.3 µM.

Question: Which IC50 does the source give for `O=C1CC(=O)OC(CCc2ccc(OC(F)F)cc2)(C2CCCC2)C1` (stereo not shown) [A(58), 6-Cyclopentyl-6-[2-(4-difluoromethoxy-phenyl)-ethyl]-dihydro-pyran-2,4-dione] here?
Answer: Its IC50 is 6.5 µM.

Question: Which IC50 does the source give for `O=C1CC(=O)OC(CCc2ccc3c(c2)OC(F)(F)C(F)(F)O3)(C2CCCC2)C1` (stereo not shown) [A(59), 6-Cyclopentyl-6-[2-(2,2,3,3-tetrafluoro-2,3-dihydro-benzo[1,4]dioxin-6-yl)-ethyl]-dihydro-pyran-2,4-dione] here?
Answer: Its IC50 is 3.2 µM.

Question: With `CCCOc1ccc(CCC2(C3CCCC3)CC(=O)CC(=O)O2)cc1` (stereo not shown) [A(60), 6-Cyclopentyl-6-[2-(4-propoxy-phenyl)-ethyl]-dihydro-pyran-2,4-dione] as the compound, how does the IC50 read?
Answer: The IC50 was 8.7 µM.

Question: How did the IC50 turn out when `CCC(=O)c1cc(OC)ccc1CCC1(C2CCCC2)CC(=O)CC(=O)O1` (stereo not shown) [A(62), 6-cyclopentyl-6-[2-(4-methoxy-2-propionylphenyl)ethyl]dihydro-2H-pyran-2,4(3H)-dione] was run?
Answer: Its IC50 is 8.3 µM.
